Measured values: patent US9353090B2, “Heterocyclic carboxylic acids as activators of soluble guanylate cyclase” (Boehringer Ingelheim International GmbH, priority 2014, dated 2016)
In brackets after ≈: the same amount, converted by molar mass.

Legend:
physchem = conditions: kinetic from dmso stock
[1] = molecular target: human soluble guanylate cyclase alpha 1 and beta 1 subunits (sGC) (Homo sapiens (Human), UniProt Q02108+Q02153); experiment: sGC cellular activator assay (cGMP, HTRF), in the presence and absence of 50% human serum; assay type: cell-based; conditions: CHO cells stably expressing human sGC alpha 1/beta 1, preincubated with 40 microM ODQ; cGMP by HTRF; Table 2 does not state whether with or without 50% human serum
Method: The sGC cellular activator assay is performed in the presence and absence of 50% human serum (HS) using Chinese hamster ovary cells that have been stably transfected to express the human soluble guanylate cyclase alpha 1 and beta 1 subunits (sGC). Cells are preincubated with 40 microM 1H-[1,2,4]oxadiazolo[4,3-a]quinoxalin-1-one (ODQ), an sGC inhibitor, for one h in buffer containing 0.1% bovine serum albumin and 3-isobutyl-1-methylxanthine (IBMX). Concentration response curves are prepared for test compounds in DMSO. An intermediate dilution of the compounds is performed in either buffer containing IBMX or type AB HS containing IBMX. Diluted compounds are added to cells and they are incubated at room temperature for thirty min. cGMP is measured using a CisBio homogeneous time resolved fluorescence kit and the EC50 is calculated for each compound.
Representative compounds of the present invention were tested for activity the above assay. Preferred compounds have an EC50 of <1,000 nM in the above assay and more preferred compounds have an EC50<200 nM.

[2] = Human liver microsome (HLM) metabolic stability assay; assay type: in vitro ADME; conditions: human liver microsomes
Method: The 5 time point, high-throughput human liver microsome (HLM) metabolic stability assay is designed to determine in vitro compound metabolism. Compounds are incubated with HLMs at a concentration of 1 uM, at 37° C., for a total of 60 min. The percent of compound remaining at 5, 15, 30, and 60 min is used to calculate the t1/2 (min), CLint (mL/min/kg), CLh (mL/min/kg), and % Qh. The assay is based on a 96-well format and can accommodate up to 92 compounds per plate (n=1).
Using the 96-well multi-channel head, the Biomek FX, equipped with a Peltier heating block/shaker, is programmed to accomplish the following steps: • 1. Pipette 175 uL of 1.15 mg/mL microsomes into each of the 96 conical inserts (Analytical Sales and Products, catalog number 96PL05) that fit into the plate of the Peltier heating block/shaker (the incubation plate) • 2. Add 5 uL of compounds from the assay plate to the microsomes and shake the mixture at 600 rpm at 42.1° C. for 10 min (a setting of 42.1° C. on the Peltier is required for the samples to incubate at 37° C.) • 3. After 10 min, prompt the user to add the NADPH plate to the deck and add 20 uL from the NADPH plate to the incubation plate to start the reaction • 4. Add 215 uL of 100%, cold acetonitrile containing an internal standard(s) to a 0 minute, 5 minute, 15 minute, 30 minute, and 60 minute “quench” plate • 5. At 0 min, 5 min, 15 min, 30 min, and 60 min into the incubation, aspirate 12 uL from the incubation mixture and add it to the quench solution to stop the reaction • 6. Add 185 uL HPLC grade water to each well of the 0, 5, 15, 30 and 60 minute quench plates to dilute compounds to the appropriate concentration for the mass spectrometer
After all time points are collected, the quench plates are sealed with 96-well pierceable plate mats or heat sealing foil and centrifuged at 3000 rpm for 15 min to pellet the microsomes.
The plates are analyzed using LC/MS/MS with electron spray ionization (ESI) and the previously determined MRM transitions. The LC method includes the following parameters:
Using an Excel template in Activitybase, the peak areas corresponding to 5, 15, 30 and 60 min are compared to the peak area at 0 min to calculate the percent of remaining compound using the following equation:
Percent compound remaining=(AUC at Time t min/AUC at Time 0 min)×100 where t=0, 5, 15, 30 or 60 min.
Time (min) is plotted against the natural logarithm (Ln) of the percent compound remaining to determine the slope. The slope is used to calculate t1/2 (min) using the equation, t1/2=0.693/slope.
Clh, Hepatic clearance • Hepatic flow*f(u)*Clint/(hepatic flow+f(u)*Clint)
Qh, % Hepatic blood flow • (Clh/Hepatic flow)*100
Preferred compounds have % Qh values of less than 24.

[3] = pH 2.2, aqueous buffer, Solubility (pH 2.2)
[4] = pH 4.5, aqueous buffer, Solubility (pH 4.5)
[5] = pH 6.8, aqueous buffer, Solubility (pH 6.8)

human soluble guanylate cyclase alpha 1 and beta 1 subunits (sGC), sequence (Q02108 whole entry partner): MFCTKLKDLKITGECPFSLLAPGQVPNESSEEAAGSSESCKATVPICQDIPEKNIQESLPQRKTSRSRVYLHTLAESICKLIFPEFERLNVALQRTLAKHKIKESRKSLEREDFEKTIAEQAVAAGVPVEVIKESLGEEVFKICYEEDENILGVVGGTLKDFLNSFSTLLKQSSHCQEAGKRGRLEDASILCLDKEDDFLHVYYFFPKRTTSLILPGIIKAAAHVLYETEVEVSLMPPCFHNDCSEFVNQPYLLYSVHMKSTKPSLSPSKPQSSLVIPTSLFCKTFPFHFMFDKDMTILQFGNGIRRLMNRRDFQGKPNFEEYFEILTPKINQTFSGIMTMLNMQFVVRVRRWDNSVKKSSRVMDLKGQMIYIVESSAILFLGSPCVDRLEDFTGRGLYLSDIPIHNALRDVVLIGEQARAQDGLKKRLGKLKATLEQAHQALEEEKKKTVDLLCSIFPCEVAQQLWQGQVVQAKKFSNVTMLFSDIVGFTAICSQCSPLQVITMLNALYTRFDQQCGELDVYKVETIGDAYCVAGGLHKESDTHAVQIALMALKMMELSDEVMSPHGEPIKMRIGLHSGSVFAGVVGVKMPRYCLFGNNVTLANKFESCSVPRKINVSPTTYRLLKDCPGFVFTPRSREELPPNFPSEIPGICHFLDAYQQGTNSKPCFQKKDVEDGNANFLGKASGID
human soluble guanylate cyclase alpha 1 and beta 1 subunits (sGC), sequence (Q02153 whole entry): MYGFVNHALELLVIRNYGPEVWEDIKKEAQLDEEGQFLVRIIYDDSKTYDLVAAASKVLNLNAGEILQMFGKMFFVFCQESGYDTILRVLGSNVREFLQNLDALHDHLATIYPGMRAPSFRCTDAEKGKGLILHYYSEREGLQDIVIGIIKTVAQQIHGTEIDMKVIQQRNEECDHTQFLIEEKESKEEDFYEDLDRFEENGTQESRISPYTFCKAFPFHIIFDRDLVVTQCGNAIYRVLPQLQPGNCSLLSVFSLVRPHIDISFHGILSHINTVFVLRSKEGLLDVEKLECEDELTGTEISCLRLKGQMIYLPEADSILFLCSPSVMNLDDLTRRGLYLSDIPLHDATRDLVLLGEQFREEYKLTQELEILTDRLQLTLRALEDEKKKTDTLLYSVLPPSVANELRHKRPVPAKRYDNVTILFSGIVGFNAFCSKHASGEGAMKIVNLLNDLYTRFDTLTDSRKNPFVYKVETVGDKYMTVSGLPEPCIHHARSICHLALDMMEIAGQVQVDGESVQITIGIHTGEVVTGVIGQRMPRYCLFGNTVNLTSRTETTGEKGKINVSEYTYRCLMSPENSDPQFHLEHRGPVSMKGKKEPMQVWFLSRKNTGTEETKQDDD

Row | SMILES | solubility at 24 h (physchem; [3]) | solubility at 24 h (physchem; [4]) | solubility at 24 h (physchem; [5]) | EC50 [1] | Metabolic stability (Qh %), % hepatic blood flow [2]
1 | COC[C@H]1N(c2cccc(-c3cccc(C)c3OCc3ccc4c(c3F)CCN(C3COC3)CC4)n2)C[C@@H]2C[C@@]21C(=O)O [Compound 263] | 122 µg/mL (≈ 207 µM) | 82.8 µg/mL (≈ 141 µM) | 54.4 µg/mL (≈ 92.6 µM) | 7 nM | <24%
2 | CO[C@H]1CN(c2nc(-c3cccc(C)c3OCc3ccc4c(c3)[C@@H](C)CN(C3CCOCC3)CC4)cs2)CC[C@H]1C(=O)O [Compound 312] | 155 µg/mL (≈ 256 µM) | 143 µg/mL (≈ 236 µM) | 146 µg/mL (≈ 242 µM) | 3 nM | <24%
3 | CO[C@H]1CN(c2nc(-c3cc(C)ccc3OCc3ccc4c(c3C)CCN(C3CCOCC3)C4)cs2)CC[C@H]1C(=O)O [Compound 178] | 110 µg/mL (≈ 186 µM) | 72 µg/mL (≈ 122 µM) | 5.1 µg/mL (≈ 8.62 µM) | 14 nM | <24%
4 | Cc1ccc(OCc2ccc3c(c2C)CCN(C2CCOCC2)CC3)c(-c2csc(N3CC[C@@]4(C(=O)O)C[C@H]4C3)n2)c1 [Compound 130] | 120 µg/mL (≈ 204 µM) | 20 µg/mL (≈ 34 µM) | 2.9 µg/mL (≈ 4.93 µM) | 6 nM | <24%
5 | CO[C@H]1CN(c2nc(-c3cc(C)ccc3OCc3cc(C)c4c(c3)CCN(C3CCOCC3)C4)cs2)CC[C@H]1C(=O)O [Compound 180] | 120 µg/mL (≈ 203 µM) | 4.3 µg/mL (≈ 7.27 µM) | 0.73 µg/mL (≈ 1.23 µM) | 46 nM | <24%
6 | CO[C@H]1CN(c2cccc(-c3cccc(C)c3OCc3ccc4c(c3C)CCN(C3COC3)C4)n2)CC[C@H]1C(=O)O [Compound 66] | 100 µg/mL (≈ 179 µM) | 84 µg/mL (≈ 151 µM) | 64 µg/mL (≈ 115 µM) | 20 nM | 33%
7 | COC[C@H]1N(c2cccc(-c3cccc(F)c3OCc3cc(C)c4c(c3)CCN(C3CCOCC3)C4)n2)C[C@@H]2C[C@@]21C(=O)O [Compound 213] | 144 µg/mL (≈ 239 µM) | 109 µg/mL (≈ 181 µM) | 81.3 µg/mL (≈ 135 µM) | 134 nM | <24%
8 | Cc1ccc(OCc2cc(C)c3c(c2)CCN(C2COC2)C3)c(-c2csc(N3CC[C@@]4(C(=O)O)C[C@H]4C3)n2)c1 [Compound 124] | 120 µg/mL (≈ 220 µM) | 3.7 µg/mL (≈ 6.78 µM) | 4.9 µg/mL (≈ 8.98 µM) | 14 nM | 31%
9 | Cc1c(COc2ccccc2-c2cccc(N3CC[C@@]4(C(=O)O)C[C@H]4C3)n2)ccc2c1CCN(C1COC1)C2 [Compound 4] | 140 µg/mL (≈ 266 µM) | 120 µg/mL (≈ 228 µM) | 65 µg/mL (≈ 124 µM) | 4 nM | <24%
10 | Cc1cc(COc2c(C)cccc2-c2cccc(N3C[C@@H]4C[C@]4(C(=O)O)C3)n2)cc2c1CN(C1CCOCC1)CC2 [Compound 22] | 110 µg/mL (≈ 199 µM) | 90 µg/mL (≈ 163 µM) | 60 µg/mL (≈ 108 µM) | 6 nM | <24%
11 | CO[C@H]1CN(c2nc(-c3cccc(C)c3OCc3cc(C)c4c(c3)CCN(C3CCOCC3)C4)cs2)CC[C@H]1C(=O)O [Compound 167] | 110 µg/mL (≈ 186 µM) | 84 µg/mL (≈ 142 µM) | 82 µg/mL (≈ 139 µM) | 10 nM | <24%
12 | CCO[C@@H]1CN(c2nc(-c3cccc(C)c3OCc3cc(OC)c4c(c3F)CCN(C3CCOCC3)C4)cs2)CC[C@@H]1C(=O)O [Compound 270] | 114 µg/mL (≈ 179 µM) | 73.4 µg/mL (≈ 115 µM) | 64 µg/mL (≈ 100 µM) | 2 nM | 38%
13 | Cc1cccc(-c2ccnc(N3C[C@@H]4C[C@]4(C(=O)O)C3)n2)c1OCc1ccc2c(c1C)CCN(C1CCOCC1)C2 [Compound 189] | 110 µg/mL (≈ 198 µM) | 66 µg/mL (≈ 119 µM) | 66 µg/mL (≈ 119 µM) | 43 nM | <24%
14 | CO[C@@H]1CN(c2cccc(-c3cccc(C)c3OCc3ccc4c(c3C)CCN([C@@H]3CCOC3)CC4)n2)CC[C@@H]1C(=O)O [Compound 302] | 148 µg/mL (≈ 252 µM) | 112 µg/mL (≈ 190 µM) | 85.5 µg/mL (≈ 146 µM) | 3 nM | <24%
15 | Cc1ccc(OCc2cc(C)c3c(c2)CCN(C2CCOCC2)C3)c(-c2csc(N3CC[C@@]4(C(=O)O)C[C@H]4C3)n2)c1 [Compound 123] | 120 µg/mL (≈ 209 µM) | 32 µg/mL (≈ 55.8 µM) | 3.3 µg/mL (≈ 5.75 µM) | 10 nM | <24%
16 | Cc1ccc(OCc2ccc3c(c2C)CCN(CC2COCCO2)C3)c(-c2csc(N3CC[C@@]4(C(=O)O)C[C@H]4C3)n2)c1 (some centres unmarked) [Compound 117] | 120 µg/mL (≈ 203 µM) | 42 µg/mL (≈ 71.2 µM) | 3.4 µg/mL (≈ 5.77 µM) | 2 nM | 27%
17 | Cc1ccc(OCc2ccc3c(c2C)CCN(C2COC2)C3)c(-c2cccc(N3C[C@@H]4C[C@]4(C(=O)O)C3)n2)c1 [Compound 36] | 100 µg/mL (≈ 190 µM) | 84 µg/mL (≈ 160 µM) | 48 µg/mL (≈ 91.3 µM) | 120 nM | <24%
18 | COc1cc(COc2c(C)cccc2-c2csc(N3CC[C@@H](C(=O)O)[C@@H](OC)C3)n2)cc2c1CN([C@@H]1CCOC1)CC2 [Compound 210] | 136 µg/mL (≈ 230 µM) | 88.2 µg/mL (≈ 149 µM) | 75 µg/mL (≈ 126 µM) | 16 nM | <24%
19 | CCO[C@H]1CN(c2nc(-c3cccc(C)c3OCc3cc4c(c(OC)c3)CN(C3CCOCC3)CC4)cs2)CC[C@H]1C(=O)O [Compound 232] | 142 µg/mL (≈ 229 µM) | 131 µg/mL (≈ 211 µM) | 131 µg/mL (≈ 211 µM) | 330 nM | <24%
